ChEMBL document CHEMBL4602719, “Discovery of Potent, Selective, and Orally Bioavailable Inhibitors of USP7 with In Vivo Antitumor Activity” (J Med Chem, 2020)

Experiments:
[1] = molecular target: T1, Ubiquitin carboxyl-terminal hydrolase 7 (Homo sapiens, UniProt Q93009); test: Inhibition of recombinant full length USP7 (unknown origin) using ubiquintin-rhodamine as substrate preincubated for 30 mins followed by substrate addition measured after 1 hr by fluorescence-based Envision plate reader assay
[2] = molecular target: T2, Ubiquitin carboxyl-terminal hydrolase 47 (Homo sapiens, UniProt Q96K76); test: Inhibition of USP47 (unknown origin) by biochemical assay
T2 sequence (Q96K76 whole entry): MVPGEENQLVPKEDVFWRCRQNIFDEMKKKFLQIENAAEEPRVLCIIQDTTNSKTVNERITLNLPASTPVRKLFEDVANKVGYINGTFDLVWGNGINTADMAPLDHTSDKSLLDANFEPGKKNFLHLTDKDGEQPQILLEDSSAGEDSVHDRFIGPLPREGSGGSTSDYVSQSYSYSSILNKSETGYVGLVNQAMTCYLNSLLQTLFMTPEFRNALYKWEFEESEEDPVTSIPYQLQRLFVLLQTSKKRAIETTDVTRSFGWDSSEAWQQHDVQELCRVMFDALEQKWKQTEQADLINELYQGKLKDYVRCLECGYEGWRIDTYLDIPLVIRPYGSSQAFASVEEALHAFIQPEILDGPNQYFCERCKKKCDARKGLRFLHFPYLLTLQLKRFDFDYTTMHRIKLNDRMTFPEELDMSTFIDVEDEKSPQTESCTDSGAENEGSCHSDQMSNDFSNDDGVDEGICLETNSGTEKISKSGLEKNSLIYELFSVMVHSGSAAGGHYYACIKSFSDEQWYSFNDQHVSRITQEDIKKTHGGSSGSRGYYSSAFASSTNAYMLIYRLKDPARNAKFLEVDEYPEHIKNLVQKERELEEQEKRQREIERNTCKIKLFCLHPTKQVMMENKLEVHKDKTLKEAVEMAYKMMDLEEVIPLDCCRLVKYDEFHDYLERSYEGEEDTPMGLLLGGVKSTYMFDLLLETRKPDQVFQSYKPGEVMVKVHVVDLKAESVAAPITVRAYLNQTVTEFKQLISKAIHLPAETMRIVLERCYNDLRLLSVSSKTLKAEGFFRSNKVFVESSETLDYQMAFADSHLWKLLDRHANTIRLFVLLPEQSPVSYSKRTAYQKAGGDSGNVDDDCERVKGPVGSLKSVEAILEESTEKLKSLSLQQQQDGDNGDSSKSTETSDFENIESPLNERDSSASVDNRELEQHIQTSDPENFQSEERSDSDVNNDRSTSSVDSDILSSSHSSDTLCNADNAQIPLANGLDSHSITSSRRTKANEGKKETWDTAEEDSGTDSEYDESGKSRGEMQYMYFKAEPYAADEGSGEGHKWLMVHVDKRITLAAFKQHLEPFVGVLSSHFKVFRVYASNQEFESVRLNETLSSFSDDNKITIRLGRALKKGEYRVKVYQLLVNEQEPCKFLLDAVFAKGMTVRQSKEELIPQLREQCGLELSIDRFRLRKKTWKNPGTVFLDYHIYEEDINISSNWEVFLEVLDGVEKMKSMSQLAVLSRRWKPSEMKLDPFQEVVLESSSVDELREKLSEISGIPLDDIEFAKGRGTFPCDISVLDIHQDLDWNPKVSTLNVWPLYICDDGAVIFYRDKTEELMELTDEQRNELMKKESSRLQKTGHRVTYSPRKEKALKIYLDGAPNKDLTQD

[3] = molecular target: T3, Ubiquitin carboxyl-terminal hydrolase 1 (Homo sapiens, UniProt O94782); test: Inhibition of His6-tagged human USP1 expressed in insect Sf21 cells coexpressing untagged UAF1 assessed as cleavage of Ubiquitin-Rhodamine110-glycine to Ubiquitin and Rhodamine110-glycine using Ubiquitin-Rhodamine110-glycine as substrate by fluorescence based analysis
T3 sequence (O94782 whole entry): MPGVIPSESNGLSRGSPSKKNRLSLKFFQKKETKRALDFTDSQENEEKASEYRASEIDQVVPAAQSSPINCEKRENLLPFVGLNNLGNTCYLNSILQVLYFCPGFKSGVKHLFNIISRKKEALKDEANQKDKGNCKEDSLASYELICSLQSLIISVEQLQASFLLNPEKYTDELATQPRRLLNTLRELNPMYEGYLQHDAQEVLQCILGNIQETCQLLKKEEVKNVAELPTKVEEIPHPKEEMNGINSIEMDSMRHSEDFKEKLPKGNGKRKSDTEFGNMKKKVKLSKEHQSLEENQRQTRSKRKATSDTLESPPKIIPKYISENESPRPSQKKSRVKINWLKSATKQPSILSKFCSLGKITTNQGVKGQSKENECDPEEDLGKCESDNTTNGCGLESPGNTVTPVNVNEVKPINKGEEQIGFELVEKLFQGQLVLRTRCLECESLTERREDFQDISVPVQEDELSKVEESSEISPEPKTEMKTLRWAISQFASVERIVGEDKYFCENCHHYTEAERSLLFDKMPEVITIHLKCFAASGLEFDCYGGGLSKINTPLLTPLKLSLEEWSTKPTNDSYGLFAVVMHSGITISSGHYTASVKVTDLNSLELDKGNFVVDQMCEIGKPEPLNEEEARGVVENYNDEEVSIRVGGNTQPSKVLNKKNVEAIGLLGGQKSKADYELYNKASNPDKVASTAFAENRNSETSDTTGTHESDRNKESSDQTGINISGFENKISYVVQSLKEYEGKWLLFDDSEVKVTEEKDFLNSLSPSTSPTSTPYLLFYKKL

[4] = AUC in Sprague-Dawley rat at 2 mg/kg, po; type: ADME, organism-based; details: in vivo
[5] = molecular target: T1, Ubiquitin carboxyl-terminal hydrolase 7; test: Inhibition of USP7 in human RKO cells transfected with p53 luciferase reporter vector assessed as increase in p53-dependent luciferase activity measured after 18 hrs by BrightGlo luciferase assay; type: cell-based
[6] = Clearance in Sprague-Dawley rat at 0.5 mg/kg, iv; type: ADME, organism-based; details: in vivo
[7] = system: MM1.S; test: Cytotoxicity against human MM1S cells expressing wild type p53 assessed as reduction in cell viability measured after 5 days by CellTiter-Glo assay; type: functional; details: 120 h
[8] = Stability of compound in human hepatocytes assessed as parent compound remaining incubated for 60 mins; type: ADME, cell-based, Hepatocyte; details: read-out: Stability
[9] = Stability of compound in rat hepatocytes assessed as parent compound remaining incubated for 60 mins; type: ADME, cell-based, Hepatocyte; details: read-out: Stability
[10] = system: NCI-H526; test: Cytotoxicity against human NCI-H526 cells expressing p53 mutant assessed as reduction in cell viability measured after 5 days by CellTiter-Glo assay; type: functional; details: NCI-H526, 120 h
[11] = molecular target: Voltage-gated inwardly rectifying potassium channel KCNH2 (Homo sapiens, UniProt Q12809); test: Inhibition of human ERG
Sequence of Voltage-gated inwardly rectifying potassium channel KCNH2 (Q12809 whole entry): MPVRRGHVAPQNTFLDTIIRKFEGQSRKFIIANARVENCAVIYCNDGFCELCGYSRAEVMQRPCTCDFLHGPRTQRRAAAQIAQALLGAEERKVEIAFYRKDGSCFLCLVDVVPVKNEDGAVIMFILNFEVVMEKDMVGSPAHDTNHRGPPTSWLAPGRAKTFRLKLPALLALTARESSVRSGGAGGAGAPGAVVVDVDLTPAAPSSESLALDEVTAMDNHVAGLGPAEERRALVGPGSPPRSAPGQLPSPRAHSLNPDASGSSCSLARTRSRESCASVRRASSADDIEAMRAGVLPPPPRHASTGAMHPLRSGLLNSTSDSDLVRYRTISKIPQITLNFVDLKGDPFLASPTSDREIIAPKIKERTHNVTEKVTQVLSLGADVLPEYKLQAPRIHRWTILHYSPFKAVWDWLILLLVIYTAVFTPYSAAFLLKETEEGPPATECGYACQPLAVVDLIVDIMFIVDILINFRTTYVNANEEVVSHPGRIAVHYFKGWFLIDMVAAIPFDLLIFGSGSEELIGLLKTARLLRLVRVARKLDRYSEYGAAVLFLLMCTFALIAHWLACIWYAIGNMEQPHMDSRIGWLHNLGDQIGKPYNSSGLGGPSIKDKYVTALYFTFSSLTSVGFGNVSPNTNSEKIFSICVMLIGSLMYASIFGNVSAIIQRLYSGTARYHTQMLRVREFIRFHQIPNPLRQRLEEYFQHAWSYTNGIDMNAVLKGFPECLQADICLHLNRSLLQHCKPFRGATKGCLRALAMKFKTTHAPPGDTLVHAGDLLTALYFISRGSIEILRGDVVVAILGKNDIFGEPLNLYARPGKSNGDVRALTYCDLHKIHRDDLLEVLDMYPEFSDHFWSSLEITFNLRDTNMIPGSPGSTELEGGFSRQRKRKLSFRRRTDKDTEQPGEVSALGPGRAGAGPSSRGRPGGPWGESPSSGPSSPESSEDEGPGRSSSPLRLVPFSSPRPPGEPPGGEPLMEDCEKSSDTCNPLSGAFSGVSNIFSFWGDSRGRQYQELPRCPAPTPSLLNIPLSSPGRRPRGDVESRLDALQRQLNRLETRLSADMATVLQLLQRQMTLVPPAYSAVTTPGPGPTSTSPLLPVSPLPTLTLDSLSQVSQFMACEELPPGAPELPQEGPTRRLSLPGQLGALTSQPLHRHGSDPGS

T1 sequence (Q93009 whole entry): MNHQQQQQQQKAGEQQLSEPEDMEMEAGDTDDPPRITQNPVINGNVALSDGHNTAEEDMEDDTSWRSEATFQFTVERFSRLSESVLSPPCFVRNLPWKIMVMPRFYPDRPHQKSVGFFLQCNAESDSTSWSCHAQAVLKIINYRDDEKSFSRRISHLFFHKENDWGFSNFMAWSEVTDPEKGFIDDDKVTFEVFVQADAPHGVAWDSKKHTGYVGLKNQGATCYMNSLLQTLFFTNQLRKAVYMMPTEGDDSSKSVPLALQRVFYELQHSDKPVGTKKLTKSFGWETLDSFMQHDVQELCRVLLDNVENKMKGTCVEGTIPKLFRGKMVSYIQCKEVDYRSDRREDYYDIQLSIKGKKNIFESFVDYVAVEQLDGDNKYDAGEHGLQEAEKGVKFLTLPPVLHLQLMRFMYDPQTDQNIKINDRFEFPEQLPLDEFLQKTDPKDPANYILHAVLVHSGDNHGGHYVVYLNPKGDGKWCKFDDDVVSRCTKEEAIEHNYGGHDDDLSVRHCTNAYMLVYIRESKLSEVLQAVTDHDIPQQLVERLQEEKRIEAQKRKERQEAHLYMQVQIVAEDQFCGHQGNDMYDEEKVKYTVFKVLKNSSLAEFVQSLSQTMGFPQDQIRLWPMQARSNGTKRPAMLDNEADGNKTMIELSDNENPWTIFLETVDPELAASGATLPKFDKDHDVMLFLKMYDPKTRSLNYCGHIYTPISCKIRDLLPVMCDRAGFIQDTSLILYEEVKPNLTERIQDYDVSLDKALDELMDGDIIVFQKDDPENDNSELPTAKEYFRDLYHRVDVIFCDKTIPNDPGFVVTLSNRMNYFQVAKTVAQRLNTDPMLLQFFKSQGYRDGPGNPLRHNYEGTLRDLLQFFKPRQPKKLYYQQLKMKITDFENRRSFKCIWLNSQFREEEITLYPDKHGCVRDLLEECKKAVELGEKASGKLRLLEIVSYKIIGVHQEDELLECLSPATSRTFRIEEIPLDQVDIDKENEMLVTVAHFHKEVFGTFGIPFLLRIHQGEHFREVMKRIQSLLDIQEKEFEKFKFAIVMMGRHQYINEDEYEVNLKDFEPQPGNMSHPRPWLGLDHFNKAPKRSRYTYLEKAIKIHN

| Structure (SMILES) | IC50 [1] | IC50 [2] | EC50 [5] | also measured |
| --- | --- | --- | --- | --- |
| Cc1cc(Cl)cc(-c2ccnc3cc(CN4C(=O)CCC4=O)sc23)c1O[C@@H]1CCNC[C@@H]1C | 2.1 nM | – | 150 nM | AUC [4]: 860 ng·h/mL; clearance [6]: 1.17 mL/min/kg |
| Cc1cc(Cl)cc(-c2ccnc3cc(CN4C(=O)C5CC5C4=O)sc23)c1C[C@@H]1CNC[C@@H](C)O1 (mixture of isomers) | 0.39 nM | – | 60 nM | CC50 [7]: 120 nM |
| Cc1cc(Cl)cc(-c2ccnc3cc(CN4C(=O)C5C(C4=O)C5(C)C)sc23)c1CC1CCCNC1 (centres undefined) | 1.3 nM | – | 130 nM | – |
| Cc1cc(Cl)cc(-c2ccnc3cc(CN4C(=O)C5CC5C4=O)sc23)c1C[C@H]1OCCN[C@@H]1C (mixture of isomers) | 1.5 nM | – | 210 nM | CC50 [7]: 310 nM |
| Cc1cc(Cl)cc(-c2ccnc3cc(CN4C(=O)CCC4=O)sc23)c1O[C@@H]1CNC[C@@H]1F | 1.2 nM | – | 560 nM | AUC [4]: 130 ng·h/mL; clearance [6]: 35 mL/min/kg |
| O=C1CCC(=O)N1Cc1cc2nccc(-c3cc(Cl)ccc3O[C@@H]3CNC[C@@H]3F)c2s1 | 207 nM | – | – | – |
| Cc1cc(Cl)cc(-c2ccnc3cc(CN4C(=O)CCC4=O)sc23)c1CN1[C@@H](C)CNC[C@@H]1C | 0.32 nM | – | 60 nM | CC50 [7]: 135 nM; CC50 [10]: 2200 nM; IC50 [11]: 2.7 µM |
| Cc1cc(Cl)cc(-c2ccnc3cc(Cn4c(=O)ccn(CC(F)(F)F)c4=O)sc23)c1O[C@@H]1CCNC[C@@H]1C | 0.26 nM | – | 42 nM | AUC [4]: 52 ng·h/mL; clearance [6]: 16.7 mL/min/kg |
| Cc1cc(Cl)cc(-c2ccnc3cc(CN4C(=O)CCC4=O)sc23)c1OCC1(F)CNC1 | 1.5 nM | – | 320 nM | – |
| Cc1cc(Cl)cc(-c2ccnc3cc(CN4C(=O)C5C(C4=O)C5(C)C)sc23)c1OC1CCCNC1 (centres undefined) | 2.4 nM | – | 250 nM | – |
| Cc1cc(Cl)cc(-c2ccnc3cc(CN4C(=O)C5CC5C4=O)sc23)c1O[C@@H]1CCNC[C@@H]1C (some centres undefined) | 1.1 nM | – | 170 nM | – |
| Cc1cc(Cl)cc(-c2ccnc3cc(CN4C(=O)C5C(C4=O)C5(C)C)sc23)c1NC1CCCNC1 (centres undefined) | 0.78 nM | – | 33 nM | – |
| Cc1cc(Cl)cc(-c2ccnc3cc(CN4C(=O)CCC4=O)sc23)c1O[C@H]1C[C@H](N)C1 | 3.4 nM | – | 150 nM | – |

Further lines, with some results ahead:

| IC50 [1] | IC50 [2] | EC50 [5] | Structure (SMILES) | also measured |
| --- | --- | --- | --- | --- |
| 930 nM | > 80 µM | – | O=C(C1Cc2cc(Cl)cc(-c3ccnc4[nH]ccc34)c2O1)N1CCNCC1 (racemic) | IC50 [3]: > 80 µM |
| 27 nM | > 5 µM | – | O=C([C@H]1Cc2cc(Cl)cc(-c3ccnc4cc(Cn5cnccc5=O)sc34)c2O1)N1CCNCC1 | – |
| 73 nM | > 40 µM | – | O=C([C@H]1Cc2cc(Cl)cc(-c3ccnc4cc(C5(O)COC5)sc34)c2O1)N1CCNCC1 | – |
| 0.38 nM | – | – | O=C1CCC(=O)N1Cc1cc2nccc(-c3cc(Cl)cc4c3O[C@@H](c3onc5c3CNCC5)C4)c2s1 | remaining at 1 h [8]: 26%; clearance [6]: 96.7 mL/min/kg; remaining at 1 h [9]: 4% |
| 130 nM | > 80 µM | – | Cc1cc2nccc(-c3cc(Cl)cc4c3O[C@@H](C(=O)N3CCNCC3)C4)c2s1 | IC50 [3]: > 80 µM |
| 1.1 nM | – | – | Cn1nc2c(c1[C@H]1Cc3cc(Cl)cc(-c4ccnc5cc(CN6C(=O)CCC6=O)sc45)c3O1)CNCC2 | remaining at 1 h [8]: 63%; clearance [6]: 78.3 mL/min/kg; remaining at 1 h [9]: 42% |
| 450 nM | > 80 µM | – | O=C([C@H]1Cc2cc(Cl)cc(-c3ccnc4[nH]ccc34)c2O1)N1CCNCC1 | IC50 [3]: > 80 µM |
| 0.16 nM | – | 35 nM | Cc1cc(Cl)cc(-c2ccnc3cc(CN4C(=O)C5CC5C4=O)sc23)c1C[C@@H]1CNCCO1 (some centres undefined) | CC50 [7]: 210 nM; CC50 [10]: 3600 nM; IC50 [11]: 8 µM |
| 13 nM | – | – | O=C1CCC(=O)N1Cc1cc2nccc(-c3cc(Cl)cc4c3O[C@@H](c3ocnc3CN3CCC3)C4)c2s1 | remaining at 1 h [8]: 14%; remaining at 1 h [9]: 2% |
| 4.6 nM | – | 180 nM | Cc1cc(Cl)cc(-c2ccnc3cc(CN4C(=O)CCC4=O)sc23)c1O[C@H]1CCCNC1 | AUC [4]: 170 ng·h/mL; clearance [6]: 81.7 mL/min/kg |
| 8 nM | – | 400 nM | Cc1cc(Cl)cc(-c2ccnc3cc(CN4C(=O)CCC4=O)sc23)c1OC1CCNCC1 | AUC [4]: 44 ng·h/mL; clearance [6]: 5.5 mL/min/kg |
| 26 nM | > 20 µM | – | O=C1CCCN1Cc1cc2nccc(-c3cc(Cl)cc4c3O[C@@H](C(=O)N3CCNCC3)C4)c2s1 | – |
| 25 nM | > 80 µM | – | CC(=O)NCc1cc2nccc(-c3cc(Cl)cc4c3O[C@@H](C(=O)N3CCNCC3)C4)c2s1 | – |
| 0.18 nM | > 2 µM | – | O=C([C@H]1Cc2cc(Cl)cc(-c3ccnc4cc(CN5C(=O)CCC5=O)sc34)c2O1)N1CCNCC1 | remaining at 1 h [8]: 37%; clearance [6]: 192 mL/min/kg; remaining at 1 h [9]: 14% |
| 9 nM | > 40 µM | – | O=C([C@H]1Cc2cc(Cl)cc(-c3ccnc4cc(C(O)(CO)CCl)sc34)c2O1)N1CCNCC1 (some centres undefined) | – |
| 43 nM | > 40 µM | – | O=C([C@H]1Cc2cc(Cl)cc(-c3ccnc4cc(CO)sc34)c2O1)N1CCNCC1 | IC50 [3]: > 40 µM |
| 32 nM | – | 1200 nM | Cc1cc(Cl)cc(-c2ccnc3cc(CN4C(=O)CCC4=O)sc23)c1CN1CCNCC1 | – |
| 6.6 nM | – | 280 nM | Cc1cc(Cl)cc(-c2ccnc3cc(CN4C(=O)CCC4=O)sc23)c1CN1CCNC[C@@H]1C | – |
| 90 nM | > 40 µM | – | O=C([C@H]1Cc2cc(Cl)cc(-c3ccnc4ccsc34)c2O1)N1CCNCC1 | IC50 [3]: > 40 µM |
